# In PubChem BioAssay (NCI):
#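 48-hour exposure; five concentrations; linearly interpolated endpoints. Abbreviation: GI50, concentration required for 50% inhibition of growth. TGI is the concentration that stops growth completely.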
# Legend:
# Experiment in all cases: NCI-60 cell line screen, 48 h
# 786-0 renal = tested on: 786-0 renal
# A498 renal = tested on: A498 renal
# A549 NSCLC = tested on: A549 NSCLC
# ACHN renal = tested on: ACHN renal
# BT-549 breast = tested on: BT-549 breast
# CAKI-1 renal = tested on: CAKI-1 renal
# COLO 205 colon = tested on: COLO 205 colon
# DU-145 prostate = tested on: DU-145 prostate
# EKVX NSCLC = tested on: EKVX NSCLC
# HCC-2998 colon = tested on: HCC-2998 colon
# HCT-116 colon = tested on: HCT-116 colon
# HCT-15 colon = tested on: HCT-15 colon
# HOP-62 NSCLC = tested on: HOP-62 NSCLC
# HOP-92 NSCLC = tested on: HOP-92 NSCLC
# HS 578T breast = tested on: HS 578T breast
# HT29 colon = tested on: HT29 colon
# IGROV1 ovarian = tested on: IGROV1 ovarian
# KM12 colon = tested on: KM12 colon
# LOX IMVI melanoma = tested on: LOX IMVI melanoma
# M14 melanoma = tested on: M14 melanoma
# MALME-3M melanoma = tested on: MALME-3M melanoma
# MCF7 breast = tested on: MCF7 breast
# MDA-MB-231 breast = tested on: MDA-MB-231 breast
# MDA-MB-435 = tested on: MDA-MB-435
# NCI-H226 lung = tested on: NCI-H226 lung
# NCI-H23 lung = tested on: NCI-H23 lung
# NCI-H460 lung = tested on: NCI-H460 lung
# NCI-H522 lung = tested on: NCI-H522 lung
# NCI/ADR-RES ovarian = tested on: NCI/ADR-RES ovarian
# OVCAR-3 ovarian = tested on: OVCAR-3 ovarian
# OVCAR-4 ovarian = tested on: OVCAR-4 ovarian
# OVCAR-5 ovarian = tested on: OVCAR-5 ovarian
# OVCAR-8 ovarian = tested on: OVCAR-8 ovarian
# PC-3 prostate = tested on: PC-3 prostate
# RPMI-8226 leukemia = tested on: RPMI-8226 leukemia
# RXF 393 renal = tested on: RXF 393 renal
# SF-268 CNS = tested on: SF-268 CNS
# SF-295 CNS = tested on: SF-295 CNS
# SF-539 CNS = tested on: SF-539 CNS
# SK-MEL-2 melanoma = tested on: SK-MEL-2 melanoma
# SK-MEL-28 melanoma = tested on: SK-MEL-28 melanoma
# SK-MEL-5 melanoma = tested on: SK-MEL-5 melanoma
# SK-OV-3 ovarian = tested on: SK-OV-3 ovarian
# SN12C renal = tested on: SN12C renal
# SNB-19 CNS = tested on: SNB-19 CNS
# SNB-75 CNS = tested on: SNB-75 CNS
# SW-620 colon = tested on: SW-620 colon
# T-47D breast = tested on: T-47D breast
# TK-10 renal = tested on: TK-10 renal
# U251 CNS = tested on: U251 CNS
# UACC-257 melanoma = tested on: UACC-257 melanoma
# UACC-62 melanoma = tested on: UACC-62 melanoma
# UO-31 renal = tested on: UO-31 renal
smiles,measurement,setting,value
O=C(Cn1ccnc1[N+](=O)[O-])NCC(F)(F)C(F)(F)F,GI50,786-0 renal,> 100 µM
same,TGI,786-0 renal,> 100 µM
same,GI50,A498 renal,> 100 µM
same,TGI,A498 renal,> 100 µM
same,GI50,A549 NSCLC,> 100 µM
same,TGI,A549 NSCLC,> 100 µM
same,GI50,ACHN renal,> 100 µM
same,TGI,ACHN renal,> 100 µM
same,GI50,BT-549 breast,> 100 µM
same,TGI,BT-549 breast,> 100 µM
same,GI50,CAKI-1 renal,> 100 µM
same,TGI,CAKI-1 renal,> 100 µM
same,GI50,COLO 205 colon,> 100 µM
same,TGI,COLO 205 colon,> 100 µM
same,GI50,DU-145 prostate,> 100 µM
same,TGI,DU-145 prostate,> 100 µM
same,GI50,EKVX NSCLC,> 100 µM
same,TGI,EKVX NSCLC,> 100 µM
same,GI50,HCC-2998 colon,> 100 µM
same,TGI,HCC-2998 colon,> 100 µM
same,GI50,HCT-116 colon,> 100 µM
same,TGI,HCT-116 colon,> 100 µM
same,GI50,HCT-15 colon,> 100 µM
same,TGI,HCT-15 colon,> 100 µM
same,GI50,HOP-62 NSCLC,> 100 µM
same,TGI,HOP-62 NSCLC,> 100 µM
same,GI50,HOP-92 NSCLC,> 100 µM
same,TGI,HOP-92 NSCLC,> 100 µM
same,GI50,HS 578T breast,> 100 µM
same,TGI,HS 578T breast,> 100 µM
same,GI50,HT29 colon,> 100 µM
same,TGI,HT29 colon,> 100 µM
same,GI50,IGROV1 ovarian,> 100 µM
same,TGI,IGROV1 ovarian,> 100 µM
same,GI50,KM12 colon,> 100 µM
same,TGI,KM12 colon,> 100 µM
same,GI50,LOX IMVI melanoma,> 100 µM
same,TGI,LOX IMVI melanoma,> 100 µM
same,GI50,M14 melanoma,> 100 µM
same,TGI,M14 melanoma,> 100 µM
same,GI50,MALME-3M melanoma,> 100 µM
same,TGI,MALME-3M melanoma,> 100 µM
same,GI50,MCF7 breast,> 100 µM
same,TGI,MCF7 breast,> 100 µM
same,GI50,MDA-MB-231 breast,> 100 µM
same,TGI,MDA-MB-231 breast,> 100 µM
same,GI50,MDA-MB-435,> 100 µM
same,TGI,MDA-MB-435,> 100 µM
same,GI50,NCI-H226 lung,> 100 µM
same,TGI,NCI-H226 lung,> 100 µM
same,GI50,NCI-H23 lung,> 100 µM
same,TGI,NCI-H23 lung,> 100 µM
same,GI50,NCI-H460 lung,> 100 µM
same,TGI,NCI-H460 lung,> 100 µM
same,GI50,NCI-H522 lung,> 100 µM
same,TGI,NCI-H522 lung,> 100 µM
same,GI50,NCI/ADR-RES ovarian,> 100 µM
same,TGI,NCI/ADR-RES ovarian,> 100 µM
same,GI50,OVCAR-3 ovarian,> 100 µM
same,TGI,OVCAR-3 ovarian,> 100 µM
same,GI50,OVCAR-4 ovarian,> 100 µM
same,TGI,OVCAR-4 ovarian,> 100 µM
same,GI50,OVCAR-5 ovarian,> 100 µM
same,TGI,OVCAR-5 ovarian,> 100 µM
same,GI50,OVCAR-8 ovarian,> 100 µM
same,TGI,OVCAR-8 ovarian,> 100 µM
same,GI50,PC-3 prostate,> 100 µM
same,TGI,PC-3 prostate,> 100 µM
same,GI50,RPMI-8226 leukemia,> 100 µM
same,TGI,RPMI-8226 leukemia,> 100 µM
same,GI50,RXF 393 renal,> 100 µM
same,TGI,RXF 393 renal,> 100 µM
same,GI50,SF-268 CNS,> 100 µM
same,TGI,SF-268 CNS,> 100 µM
same,GI50,SF-295 CNS,> 100 µM
same,TGI,SF-295 CNS,> 100 µM
same,GI50,SF-539 CNS,> 100 µM
same,TGI,SF-539 CNS,> 100 µM
same,GI50,SK-MEL-2 melanoma,> 100 µM
same,TGI,SK-MEL-2 melanoma,> 100 µM
same,GI50,SK-MEL-28 melanoma,> 100 µM
same,TGI,SK-MEL-28 melanoma,> 100 µM
same,GI50,SK-MEL-5 melanoma,> 100 µM
same,TGI,SK-MEL-5 melanoma,> 100 µM
same,GI50,SK-OV-3 ovarian,> 100 µM
same,TGI,SK-OV-3 ovarian,> 100 µM
same,GI50,SN12C renal,> 100 µM
same,TGI,SN12C renal,> 100 µM
same,GI50,SNB-19 CNS,> 100 µM
same,TGI,SNB-19 CNS,> 100 µM
same,GI50,SNB-75 CNS,> 100 µM
same,TGI,SNB-75 CNS,> 100 µM
same,GI50,SW-620 colon,> 100 µM
same,TGI,SW-620 colon,> 100 µM
same,GI50,T-47D breast,> 100 µM
same,TGI,T-47D breast,> 100 µM
same,GI50,TK-10 renal,> 100 µM
same,TGI,TK-10 renal,> 100 µM
same,GI50,U251 CNS,> 100 µM
same,TGI,U251 CNS,> 100 µM
same,GI50,UACC-257 melanoma,> 100 µM
same,TGI,UACC-257 melanoma,> 100 µM
same,GI50,UACC-62 melanoma,> 100 µM
same,TGI,UACC-62 melanoma,> 100 µM
same,GI50,UO-31 renal,> 100 µM
same,TGI,UO-31 renal,> 100 µM
